target: Recombinant human cathepsin S (CatS) (Homo sapiens, UniProt P25774); test: Recombinant human cathepsin S (CatS) inhibition assay, fluorogenic substrate Z-Valine-Valine-Arginine-AMC; settings: not given;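 also: Baculovirus-expressed CatS in pH 5.0 sodium acetate buffer with DTT and NaCl, fluorescence read each minute over 20 min, inhibition derived from rate slope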
Sequence (P25774 115-331): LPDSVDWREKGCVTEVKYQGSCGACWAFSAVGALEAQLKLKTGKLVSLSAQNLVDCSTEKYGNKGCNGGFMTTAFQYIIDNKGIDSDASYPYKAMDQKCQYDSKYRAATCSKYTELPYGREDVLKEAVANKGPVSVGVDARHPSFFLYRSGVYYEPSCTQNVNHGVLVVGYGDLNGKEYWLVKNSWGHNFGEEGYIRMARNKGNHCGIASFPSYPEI

Compound	IC50 [nM]
NC(=O)C(=O)N1CCc2c(c(-c3ccc(Cl)c(C#Cc4ccc(CNCc5ccc(Cl)cc5)cc4)c3)nn2CCCN2CCC(C(F)(F)F)CC2)C1 [Example 452, 2-[3-(4-Chloro-3-{[4-({[(4-chlorophenyl)methyl]amino}methyl)phenyl]ethynyl}phenyl)-1-{3-[4-(trifluoromethyl)piperidin-1-yl]propyl}-1,4,6,7-tetrahydro-5H-pyrazolo[4,3-c]pyridin-5-yl]-2-oxoacetamide]	100
CS(=O)(=O)N1CCc2c(c(-c3ccc(Cl)c(C#Cc4ccc5c(c4)CN[C@H](C(=O)O)C5)c3)nn2CCCN2CCOCC2)C1 [Example 199, (3S)-7-({2-Chloro-5-[5-(methylsulfonyl)-1-(3-morpholin-4-ylpropyl)-4,5,6,7-tetrahydro-1H-pyrazolo[4,3-c]pyridin-3-yl]phenyl}ethynyl)-1,2,3,4-tetrahydroisoquinoline-3-carboxylic acid]	60
CC(C)CC#Cc1cc(-c2nn(C[C@@H](O)CN3CCC(C4CCN(C(=O)OC(C)(C)C)CC4)CC3)c3c2CN(S(C)(=O)=O)CC3)ccc1Cl [Example 231, 1,1-Dimethylethyl 1′-[(2S)-3-{3-[4-chloro-3-(4-methylpent-1-yn-1-yl)phenyl]-5-(methylsulfonyl)-4,5,6,7-tetrahydro-1H-pyrazolo[4,3-c]pyridin-1-yl}-2-hydroxypropyl]-4,4′-bipiperidine-1-carboxylate]	2690
CC(C)(C)OC(=O)N1CCC(C2CCN(C[C@H](O)Cn3nc(-c4ccc(Cl)c(C#Cc5ccc(Cl)cc5)c4)c4c3CCN(S(C)(=O)=O)C4)CC2)CC1 [Example 230, 1,1-Dimethylethyl 1′-{(2S)-3-[3-{4-chloro-3-[(4-chlorophenyl)ethynyl]phenyl}-5-(methylsulfonyl)-4,5,6,7-tetrahydro-1H-pyrazolo[4,3-c]pyridin-1-yl]-2-hydroxypropyl}-4,4′-bipiperidine-1-carboxylate]	10
CS(=O)(=O)N1CCc2c(c(-c3ccc(Cl)c(C#Cc4ccc(CNCc5ccc(Cl)cc5)cc4)c3)nn2CCCN2C[C@@H]3C[C@H]2CO3)C1 [Example 420, 1-[4-({2-Chloro-5-[5-(methylsulfonyl)-1-{3-[(1S,4S)-2-oxa-5-azabicyclo[2.2.1]hept-5-yl]propyl}-4,5,6,7-tetrahydro-1H-pyrazolo[4,3-c]pyridin-3-yl]phenyl}ethynyl)phenyl]-N-[(4-chlorophenyl)methyl]methanamine]	100
NC(=O)N1CCc2c(c(-c3ccc(Cl)c(C#Cc4ccc(C(=O)NCc5cccnc5)cc4)c3)nn2CCCN2CCSCC2)C1 [Example 162, 3-{4-Chloro-3-[(4-{[(pyridin-3-ylmethyl)amino]carbonyl}phenyl)ethynyl]phenyl}-1-(3-thiomorpholin-4-ylpropyl)-1,4,6,7-tetrahydro-5H-pyrazolo[4,3-c]pyridine-5-carboxamide]	90
CS(=O)(=O)N1CCc2c(c(-c3ccc(Cl)c(CCCCO)c3)nn2CCCN2CCC(N3CCCC3=O)CC2)C1 [Example 311, 1-[1-(3-{3-[4-Chloro-3-(4-hydroxybutyl)phenyl]-5-(methylsulfonyl)-4,5,6,7-tetrahydro-1H-pyrazolo[4,3-c]pyridin-1-yl}propyl)piperidin-4-yl]pyrrolidin-2-one]	1350
CS(=O)(=O)N1CCc2c(c(-c3ccc(Cl)c(C#Cc4ccc5c(c4)CNCC5)c3)nn2CCCN2CCOCC2)C1 [Example 360, 7-({2-Chloro-5-[5-(methylsulfonyl)-1-(3-morpholin-4-ylpropyl)-4,5,6,7-tetrahydro-1H-pyrazolo[4,3-c]pyridin-3-yl]phenyl}ethynyl)-1,2,3,4-tetrahydroisoquinoline]	170
CC(=O)NC1CCN(CCCn2nc(-c3ccc(Cl)c(C#Cc4ccc(CNCc5ccc(Cl)cc5)cc4)c3)c3c2CCN(S(C)(=O)=O)C3)CC1 [Example 346, N-(1-{3-[3-(4-Chloro-3-{[4-({[(4-chlorophenyl)methyl]amino}methyl)phenyl]ethynyl}phenyl)-5-(methylsulfonyl)-4,5,6,7-tetrahydro-1H-pyrazolo[4,3-c]pyridin-1-yl]propyl}piperidin-4-yl)acetamide]	20
CC(=O)N1CCc2c(c(-c3ccc(Cl)c(C#Cc4ccc(CNCc5ccc(Cl)cc5)cc4)c3)nn2CCCN2CCOC[C@@H]2C)C1 [Example 400, 1-(4-{[5-(5-Acetyl-1-{3-[(3S)-3-methylmorpholin-4-yl]propyl}-4,5,6,7-tetrahydro-1H-pyrazolo[4,3-c]pyridin-3-yl)-2-chlorophenyl]ethynyl}phenyl)-N-[(4-chlorophenyl)methyl]methanamine]	190

same assay, conditions: CatS IC50

Compound	IC50 [nM]
CS(=O)(=O)N1CCc2c(c(-c3ccc(Cl)c(C#CC4CCCCC4)c3)nn2CCCN2CCOCC2)C1 [Example 48, 3-(4-Chloro-3-cyclohexylethynyl-phenyl)-5-methanesulfonyl-1-(3-morpholin-4-yl-propyl)-4,5,6,7-tetrahydro-1H-pyrazolo[4,3-c]pyridine]	6750
CS(=O)(=O)N1CCc2c(c(-c3ccc(Cl)c(C#Cc4ccc(CNCc5ccc(Cl)cc5)cc4)c3)nn2CCCN2CCC(C(F)(F)F)CC2)C1 [Example 345, 1-[4-({2-Chloro-5-[5-(methylsulfonyl)-1-{3-[4-(trifluoromethyl)piperidin-1-yl]propyl}-4,5,6,7-tetrahydro-1H-pyrazolo[4,3-c]pyridin-3-yl]phenyl}ethynyl)phenyl]-N-[(4-chlorophenyl)methyl]methanamine]	110
CS(=O)(=O)N1CCc2c(c(-c3ccc(Cl)c(C#Cc4ccc(CNCc5ccc(Cl)cc5)cc4)c3)nn2CCCN2CCC(F)(F)CC2)C1 [Example 357, 1-{4-[(2-Chloro-5-{1-[3-(4,4-difluoropiperidin-1-yl)propyl]-5-(methylsulfonyl)-4,5,6,7-tetrahydro-1H-pyrazolo[4,3-c]pyridin-3-yl}phenyl)ethynyl]phenyl}-N-[(4-chlorophenyl)methyl]methanamine]	210
CS(=O)(=O)N1CCc2c(c(-c3ccc(Cl)c(C#Cc4ccc5c(c4)CN[C@@H](CO)C5)c3)nn2CCCN2CCOCC2)C1 [Example 201, [(3R)-7-({2-Chloro-5-[5-(methylsulfonyl)-1-(3-morpholin-4-ylpropyl)-4,5,6,7-tetrahydro-1H-pyrazolo[4,3-c]pyridin-3-yl]phenyl}ethynyl)-1,2,3,4-tetrahydroisoquinolin-3-yl]methanol]	190
C[C@H]1COCCN1C[C@@H](O)Cn1nc(-c2ccc(Cl)c(C#Cc3ccc(CNCc4ccc(Cl)cc4)cc3)c2)c2c1CCN(C(=O)C(N)=O)C2 [Example 256, 2-{3-(4-Chloro-3-{4-[(4-chloro-benzylamino)-methyl]-phenylethynyl}-phenyl)-1-[(2R)-2-hydroxy-3-((3S)-3-methyl-morpholin-4-yl)-propyl]-1,4,6,7-tetrahydro-pyrazolo[4,3-c]pyridin-5-yl}-2-oxo-acetamide]	50
O=C(C1CCCO1)N1CCc2c(c(-c3ccc(Cl)c(C#Cc4ccc(Cl)cc4)c3)nn2CCCN2CCOCC2)C1 (centres unmarked) [Example 141, [3-[4-Chloro-3-(4-chloro-phenylethynyl)-phenyl]-1-(3-morpholin-4-yl-propyl)-1,4,6,7-tetrahydro-pyrazolo[4,3-c]pyridin-5-yl]-(tetrahydro-furan-2-yl)-methanone]	310
CS(=O)(=O)N1CCc2c(c(-c3ccc(Cl)c(C#Cc4ccc5c(c4)CN[C@H](C(=O)N4CCOCC4)C5)c3)nn2CCCN2CCOCC2)C1 [Example 194, (3S)-7-({2-Chloro-5-[5-(methylsulfonyl)-1-(3-morpholin-4-ylpropyl)-4,5,6,7-tetrahydro-1H-pyrazolo[4,3-c]pyridin-3-yl]phenyl}ethynyl)-3-(morpholin-4-ylcarbonyl)-1,2,3,4-tetrahydroisoquinoline]	20
CS(=O)(=O)N1CCc2c(c(-c3ccc(Cl)c(C#Cc4ccc5c(c4)CCN(CC4CC4)C5)c3)nn2CCCN2CCOCC2)C1 [Example 505, 6-({2-Chloro-5-[5-(methylsulfonyl)-1-(3-morpholin-4-ylpropyl)-4,5,6,7-tetrahydro-1H-pyrazolo[4,3-c]pyridin-3-yl]phenyl}ethynyl)-2-(cyclopropylmethyl)-1,2,3,4-tetrahydroisoquinoline]	630
C[C@H]1COCCN1CCCn1nc(-c2ccc(Cl)c(C#Cc3ccc(Cl)c(C(=O)NCC4CNC4)c3)c2)c2c1CCN(C(=O)C(N)=O)C2 [Example 598, 5-{[5-(5-[Amino(oxo)acetyl]-1-{3-[(3S)-3-methylmorpholin-4-yl]propyl}-4,5,6,7-tetrahydro-1H-pyrazolo[4,3-c]pyridin-3-yl)-2-chlorophenyl]ethynyl}-N-(azetidin-3-ylmethyl)-2-chlorobenzamide]	30
NC(=O)C(=O)N1CCc2c(c(-c3ccc(Cl)c(C#Cc4ccc(CNCc5ccc(Cl)cc5)cc4)c3)nn2C[C@H](O)CN2CCOCC2)C1 [Example 254, (R)-2-[3-(4-Chloro-3-{4-[(4-chloro-benzylamino)-methyl]-phenylethynyl}-phenyl)-1-(2-hydroxy-3-morpholin-4-yl-propyl)-1,4,6,7-tetrahydro-pyrazolo[4,3-c]pyridin-5-yl]-2-oxo-acetamide]	240
CS(=O)(=O)N1CCc2c(c(-c3ccc(Cl)c(C#Cc4ccc(CNCc5ccc(Cl)cc5)cc4)c3)nn2CCCN2CCCC2)C1 [Example 333, 1-[4-({2-Chloro-5-[5-(methylsulfonyl)-1-(3-pyrrolidin-1-ylpropyl)-4,5,6,7-tetrahydro-1H-pyrazolo[4,3-c]pyridin-3-yl]phenyl}ethynyl)phenyl]-N-[(4-chlorophenyl)methyl]methanamine]	180
CS(=O)(=O)N1CCc2c(c(-c3ccc(Cl)c(C#Cc4ccc(Cl)c(CNCc5ccccc5)c4)c3)nn2CCCN2CCOCC2)C1 [Example 287, 1-[2-Chloro-5-({2-chloro-5-[5-(methylsulfonyl)-1-(3-morpholin-4-ylpropyl)-4,5,6,7-tetrahydro-1H-pyrazolo[4,3-c]pyridin-3-yl]phenyl}ethynyl)phenyl]-N-(phenylmethyl)methanamine]	50
NC(=O)N1CCc2c(c(-c3ccc(Cl)c(C#Cc4cccc(CNCc5ccc(Cl)cc5)c4)c3)nn2CCCN2CCSCC2)C1 [Example 171, 3-(4-Chloro-3-{[3-({[(4-chlorophenyl)methyl]amino}methyl)phenyl]ethynyl}phenyl)-1-(3-thiomorpholin-4-ylpropyl)-1,4,6,7-tetrahydro-5H-pyrazolo[4,3-c]pyridine-5-carboxamide]	200
